Measured values taken from ChEMBL document CHEMBL4385643, “Design of a brain-penetrant CDK4/6 inhibitor for glioblastoma” (Bioorg Med Chem Lett, 2019).

What was measured:
[1] = biological target: Activin receptor type-1B (Homo sapiens) (UniProt P36896); experiment: Inhibition of recombinant human GST-tagged ACVR1B catalytic domain (150 to 505 residues) expressed in baculovirus expression system at 0.1 uM using serine/threonine-16 peptide as substrate incubated for 60 mins by Z'-LYTE assay relative to control
[2] = biological target: Activin receptor type-2B (Homo sapiens) (UniProt Q13705); experiment: Inhibition of tracer 178 binding to recombinant human GST-tagged ACVR2B catalytic domain (185 to 488 residues) expressed in baculovirus at 0.1 uM measured after 60 mins by Lanthascreen assay
[3] = biological target: NUAK family SNF1-like kinase 1 (Homo sapiens) (UniProt O60285); experiment: Inhibition of recombinant full length human His-tagged ARK5 expressed in baculovirus expression system at 0.1 uM using CHKtide peptide as substrate incubated for 60 mins by Adapta assay relative to control
[4] = biological target: Calcium/calmodulin-dependent protein kinase kinase 2 (Homo sapiens) (UniProt Q96RR4); experiment: Inhibition of tracer 236 binding to recombinant full length human GST-tagged CAMKK2 expressed in baculovirus expression system at 0.1 uM measured after 60 mins by Lanthascreen assay relative to control
[5] = biological target: Calcium/calmodulin-dependent protein kinase type IV (Homo sapiens) (UniProt Q16566); experiment: Inhibition of recombinant full length human full length GST-tagged CAMK4 expressed in Escherichia coli expression system at 0.1 uM using serine/threonine-13 peptide as substrate incubated for 60 mins by Z'-LYTE assay relative to control
[6] = biological target: Serine/threonine-protein kinase 17A (Homo sapiens) (UniProt Q9UEE5); experiment: Inhibition of tracer 236 binding to recombinant full length human GST-tagged DRAK1 expressed in baculovirus expression system at 0.1 uM measured after 60 mins by Lanthascreen assay relative to control
[7] = biological target: Ephrin type-A receptor 8 (Homo sapiens) (UniProt P29322); experiment: Inhibition of recombinant human GST-tagged EPHA8 catalytic domain (565 to 1005 residues) expressed in baculovirus expression system at 0.1 uM using tyrosine-2 peptide as substrate incubated for 60 mins by Z'-LYTE assay relative to control
[8] = biological target: Receptor-type tyrosine-protein kinase FLT3 (Homo sapiens) (UniProt P36888); experiment: Inhibition of recombinant human His-tagged FLT3 catalytic domain (564 to 958 residues) expressed in baculovirus expression system at 0.1 uM using tyrosine-2 peptide as substrate incubated for 60 mins by Z'-LYTE assay relative to control
[9] = biological target: Vascular endothelial growth factor receptor 3 (Homo sapiens) (UniProt P35916); experiment: Inhibition of recombinant human GST-tagged FLT4 catalytic domain (800 to 1297 residues) expressed in baculovirus expression system at 0.1 uM using tyrosine-4 peptide as substrate incubated for 60 mins by Z'-LYTE assay relative to control
[10] = biological target: Interleukin-1 receptor-associated kinase 4 (Homo sapiens) (UniProt Q9NWZ3); experiment: Inhibition of recombinant full length human His-tagged IRAK4 expressed in baculovirus expression system at 0.1 uM using serine/threonine-7 peptide as substrate incubated for 60 mins by Z'-LYTE assay relative to control
[11] = biological target: Insulin receptor (Homo sapiens) (UniProt P06213); experiment: Inhibition of recombinant human GST-tagged INSR (1011 to 1382 residues) expressed in baculovirus expression system at 0.1 uM using tyrosine-1 peptide as substrate incubated for 60 mins by Z'-LYTE assay relative to control
[12] = biological target: Mitogen-activated protein kinase 9 (Homo sapiens) (UniProt P45984); experiment: Inhibition of recombinant full length human His-tagged JNK2 expressed in baculovirus expression system at 0.1 uM using serine/threonine-4 peptide as substrate incubated for 60 mins by Z'-LYTE assay relative to control
[13] = biological target: Vascular endothelial growth factor receptor 2 (Homo sapiens) (UniProt P35968); experiment: Inhibition of recombinant human His-tagged KDR (789 to 1356 residues) expressed in baculovirus expression system at 0.1 uM using tyrosine-1 peptide as substrate incubated for 60 mins by Z'-LYTE assay relative to control
[14] = biological target: Tyrosine-protein kinase Lyn (Homo sapiens) (UniProt P07948); experiment: Inhibition of recombinant full length human LYN at 0.1 uM using tyrosine-2 peptide as substrate incubated for 60 mins by Z'-LYTE assay relative to control
[15] = biological target: Serine/threonine-protein kinase 3 (Homo sapiens) (UniProt Q13188); experiment: Inhibition of recombinant full length human GST-tagged MST2 expressed in baculovirus expression system at 0.1 uM using serine/threonine-7 peptide as substrate incubated for 60 mins by Z'-LYTE assay relative to control
[16] = biological target: Protein kinase C theta type (Homo sapiens) (UniProt Q04759); experiment: Inhibition of recombinant full length human His-tagged PKCtheta expressed in baculovirus expression system at 0.1 uM using serine/threonine-7 peptide as substrate incubated for 60 mins by Z'-LYTE assay relative to control
[17] = biological target: Protein kinase C zeta type (Homo sapiens) (UniProt Q05513); experiment: Inhibition of recombinant full length human PKCzeta expressed in baculovirus expression system at 0.1 uM using serine/threonine-7 peptide as substrate incubated for 60 mins by Z'-LYTE assay relative to control
[18] = biological target: Ribosomal protein S6 kinase alpha-1 (Homo sapiens) (UniProt Q15418); experiment: Inhibition of recombinant full length human His-tagged RSK1 expressed in baculovirus expression system at 0.1 uM using serine/threonine-6 peptide as substrate incubated for 60 mins by Z'-LYTE assay relative to control
[19] = biological target: TAK1/TAB1 (Homo sapiens) (UniProt Q15750+O43318); experiment: Inhibition of tracer 222 binding to recombinant human His-tagged TAK1-TAB1 catalytic domain (437 to 504 residues) expressed in baculovirus expression system at 0.1 uM measured after 60 mins by Lanthascreen assay relative to control
[20] = biological target: Tyrosine-protein kinase TXK (Homo sapiens) (UniProt P42681); experiment: Inhibition of recombinant human GST-tagged TXK catalytic domain (260 to 527 residues) expressed in baculovirus expression system at 0.1 uM using tyrosine-6 peptide as substrate incubated for 60 mins by Z'-LYTE assay relative to control
[21] = biological target: Angiopoietin-1 receptor (Homo sapiens) (UniProt Q02763); experiment: Inhibition of recombinant human GST-tagged TIE2 (817 to 1101 residues) expressed in baculovirus expression system at 0.1 uM using tyrosine-5 peptide as substrate incubated for 60 mins by Z'-LYTE assay relative to control
[22] = biological target: Mitogen-activated protein kinase 11 (Homo sapiens) (UniProt Q15759); experiment: Inhibition of recombinant full length human His-tagged p38beta expressed in baculovirus expression system at 0.1 uM using serine/threonine-15 peptide as substrate incubated for 60 mins by Z'-LYTE assay relative to control
[23] = biological target: Mitogen-activated protein kinase kinase kinase 20 (Homo sapiens) (UniProt Q9NYL2); experiment: Inhibition of recombinant full length human GST-tagged ZAK expressed in baculovirus expression system at 0.1 uM using CREBtide as substrate 60 mins by Lanthascreen assay relative to control
Sequence of Mitogen-activated protein kinase kinase kinase 20 (Homo sapiens) (Q9NYL2 2-800 limits assumed): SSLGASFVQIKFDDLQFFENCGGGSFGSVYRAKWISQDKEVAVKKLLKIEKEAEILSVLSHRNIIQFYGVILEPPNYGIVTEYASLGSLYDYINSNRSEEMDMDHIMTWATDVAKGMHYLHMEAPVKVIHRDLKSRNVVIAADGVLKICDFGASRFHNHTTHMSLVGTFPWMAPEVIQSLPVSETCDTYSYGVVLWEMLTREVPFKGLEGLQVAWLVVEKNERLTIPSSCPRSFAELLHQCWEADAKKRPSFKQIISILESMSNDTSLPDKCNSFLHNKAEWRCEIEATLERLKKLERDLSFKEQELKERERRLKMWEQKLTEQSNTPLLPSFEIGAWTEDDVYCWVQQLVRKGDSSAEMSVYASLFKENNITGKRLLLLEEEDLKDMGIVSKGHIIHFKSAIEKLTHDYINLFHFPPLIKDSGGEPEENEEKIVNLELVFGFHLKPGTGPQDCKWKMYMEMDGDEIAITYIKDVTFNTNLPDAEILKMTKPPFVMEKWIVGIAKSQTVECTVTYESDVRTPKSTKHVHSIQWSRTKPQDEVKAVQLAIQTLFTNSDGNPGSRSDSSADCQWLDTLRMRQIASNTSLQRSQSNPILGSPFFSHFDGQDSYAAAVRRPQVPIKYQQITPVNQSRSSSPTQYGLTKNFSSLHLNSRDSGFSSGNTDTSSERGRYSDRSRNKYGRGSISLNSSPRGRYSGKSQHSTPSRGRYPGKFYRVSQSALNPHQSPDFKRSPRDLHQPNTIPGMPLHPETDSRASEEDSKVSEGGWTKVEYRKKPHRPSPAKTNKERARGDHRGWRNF

Sequence of Interleukin-1 receptor-associated kinase 4 (Homo sapiens) (Q9NWZ3 whole entry, the tested form may be a part): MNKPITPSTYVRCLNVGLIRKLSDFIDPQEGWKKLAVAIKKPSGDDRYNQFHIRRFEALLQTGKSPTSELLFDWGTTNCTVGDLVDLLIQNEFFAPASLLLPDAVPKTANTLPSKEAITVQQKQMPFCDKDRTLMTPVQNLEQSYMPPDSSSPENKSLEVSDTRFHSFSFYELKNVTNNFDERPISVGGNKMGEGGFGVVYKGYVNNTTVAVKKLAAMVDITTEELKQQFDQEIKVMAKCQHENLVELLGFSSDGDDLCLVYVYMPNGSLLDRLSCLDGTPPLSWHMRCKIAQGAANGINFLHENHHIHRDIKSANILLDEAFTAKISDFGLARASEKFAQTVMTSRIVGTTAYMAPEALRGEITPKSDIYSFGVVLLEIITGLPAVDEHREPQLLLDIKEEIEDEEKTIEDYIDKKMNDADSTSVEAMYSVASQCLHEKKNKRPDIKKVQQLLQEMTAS
Sequence of Protein kinase C zeta type (Homo sapiens) (Q05513 whole entry): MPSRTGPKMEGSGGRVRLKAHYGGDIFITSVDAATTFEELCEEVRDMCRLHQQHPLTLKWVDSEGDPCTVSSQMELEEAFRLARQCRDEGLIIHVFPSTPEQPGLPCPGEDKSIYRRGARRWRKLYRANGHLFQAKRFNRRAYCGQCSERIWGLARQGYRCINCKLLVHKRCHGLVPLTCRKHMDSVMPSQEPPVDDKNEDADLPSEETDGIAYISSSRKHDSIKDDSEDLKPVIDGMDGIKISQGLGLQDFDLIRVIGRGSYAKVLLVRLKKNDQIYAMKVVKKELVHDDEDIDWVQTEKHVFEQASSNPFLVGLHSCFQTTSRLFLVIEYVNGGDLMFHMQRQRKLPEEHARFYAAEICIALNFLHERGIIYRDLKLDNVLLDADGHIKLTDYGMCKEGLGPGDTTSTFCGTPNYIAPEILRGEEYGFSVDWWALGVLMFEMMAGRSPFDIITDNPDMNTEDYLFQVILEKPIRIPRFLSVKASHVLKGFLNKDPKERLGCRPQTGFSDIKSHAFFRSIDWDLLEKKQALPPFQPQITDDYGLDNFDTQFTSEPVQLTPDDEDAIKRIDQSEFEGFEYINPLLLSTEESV
Sequence of Calcium/calmodulin-dependent protein kinase type IV (Homo sapiens) (Q16566 whole entry): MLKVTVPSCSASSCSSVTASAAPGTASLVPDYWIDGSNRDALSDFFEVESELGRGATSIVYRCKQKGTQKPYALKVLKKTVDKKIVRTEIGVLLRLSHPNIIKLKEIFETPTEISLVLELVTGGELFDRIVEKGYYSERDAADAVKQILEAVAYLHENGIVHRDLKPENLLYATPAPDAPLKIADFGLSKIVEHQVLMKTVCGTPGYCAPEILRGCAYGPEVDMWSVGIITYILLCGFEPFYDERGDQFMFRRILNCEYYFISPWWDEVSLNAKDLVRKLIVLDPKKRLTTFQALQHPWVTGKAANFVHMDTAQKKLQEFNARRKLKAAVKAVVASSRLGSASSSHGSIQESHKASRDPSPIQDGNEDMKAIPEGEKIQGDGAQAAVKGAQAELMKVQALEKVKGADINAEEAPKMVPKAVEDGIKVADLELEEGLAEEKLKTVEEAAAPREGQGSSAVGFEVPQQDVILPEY
Sequence of Serine/threonine-protein kinase 3 (Homo sapiens) (Q13188 whole entry): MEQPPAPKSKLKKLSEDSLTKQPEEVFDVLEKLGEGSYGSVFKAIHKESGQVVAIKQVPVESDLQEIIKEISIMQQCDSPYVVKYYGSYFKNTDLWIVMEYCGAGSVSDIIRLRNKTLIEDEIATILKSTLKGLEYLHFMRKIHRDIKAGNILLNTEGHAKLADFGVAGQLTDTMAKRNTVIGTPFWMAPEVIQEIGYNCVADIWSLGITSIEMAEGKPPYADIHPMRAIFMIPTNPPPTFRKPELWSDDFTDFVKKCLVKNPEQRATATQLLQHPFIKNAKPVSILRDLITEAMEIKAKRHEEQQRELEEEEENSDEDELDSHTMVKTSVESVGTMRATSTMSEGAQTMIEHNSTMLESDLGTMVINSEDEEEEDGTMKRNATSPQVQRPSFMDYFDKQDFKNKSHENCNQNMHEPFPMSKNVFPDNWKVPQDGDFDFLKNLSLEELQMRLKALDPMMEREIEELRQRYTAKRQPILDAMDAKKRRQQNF
Sequence of Ephrin type-A receptor 8 (Homo sapiens) (P29322 whole entry, the tested form may be a part): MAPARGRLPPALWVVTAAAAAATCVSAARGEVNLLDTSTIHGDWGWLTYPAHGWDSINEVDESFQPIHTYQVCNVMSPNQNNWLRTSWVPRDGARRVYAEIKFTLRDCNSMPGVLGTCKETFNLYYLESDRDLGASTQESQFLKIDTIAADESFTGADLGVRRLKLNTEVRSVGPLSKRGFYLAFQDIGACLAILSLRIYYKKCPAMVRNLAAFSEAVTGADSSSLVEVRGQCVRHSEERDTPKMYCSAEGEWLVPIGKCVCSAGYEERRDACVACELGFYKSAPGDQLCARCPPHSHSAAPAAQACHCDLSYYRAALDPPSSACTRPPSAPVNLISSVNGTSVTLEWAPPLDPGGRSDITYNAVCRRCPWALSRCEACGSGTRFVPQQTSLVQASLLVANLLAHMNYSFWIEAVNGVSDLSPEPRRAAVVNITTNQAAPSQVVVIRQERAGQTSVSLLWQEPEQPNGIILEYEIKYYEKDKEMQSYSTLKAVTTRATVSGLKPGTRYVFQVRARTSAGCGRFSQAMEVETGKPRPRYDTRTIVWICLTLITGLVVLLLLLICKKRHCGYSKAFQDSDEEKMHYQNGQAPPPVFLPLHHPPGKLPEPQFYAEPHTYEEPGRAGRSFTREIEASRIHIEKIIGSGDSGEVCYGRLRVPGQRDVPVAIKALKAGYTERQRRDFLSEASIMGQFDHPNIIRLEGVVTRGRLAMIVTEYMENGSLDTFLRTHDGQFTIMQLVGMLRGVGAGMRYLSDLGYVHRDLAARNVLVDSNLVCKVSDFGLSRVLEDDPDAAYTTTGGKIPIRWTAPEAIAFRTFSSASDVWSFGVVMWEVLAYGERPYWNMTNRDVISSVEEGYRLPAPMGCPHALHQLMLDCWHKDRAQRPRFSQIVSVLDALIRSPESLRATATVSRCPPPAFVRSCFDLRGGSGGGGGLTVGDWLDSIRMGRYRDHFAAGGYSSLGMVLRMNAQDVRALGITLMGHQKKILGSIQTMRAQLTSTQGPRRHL
Sequence of Tyrosine-protein kinase Lyn (Homo sapiens) (P07948 2-512 limits assumed): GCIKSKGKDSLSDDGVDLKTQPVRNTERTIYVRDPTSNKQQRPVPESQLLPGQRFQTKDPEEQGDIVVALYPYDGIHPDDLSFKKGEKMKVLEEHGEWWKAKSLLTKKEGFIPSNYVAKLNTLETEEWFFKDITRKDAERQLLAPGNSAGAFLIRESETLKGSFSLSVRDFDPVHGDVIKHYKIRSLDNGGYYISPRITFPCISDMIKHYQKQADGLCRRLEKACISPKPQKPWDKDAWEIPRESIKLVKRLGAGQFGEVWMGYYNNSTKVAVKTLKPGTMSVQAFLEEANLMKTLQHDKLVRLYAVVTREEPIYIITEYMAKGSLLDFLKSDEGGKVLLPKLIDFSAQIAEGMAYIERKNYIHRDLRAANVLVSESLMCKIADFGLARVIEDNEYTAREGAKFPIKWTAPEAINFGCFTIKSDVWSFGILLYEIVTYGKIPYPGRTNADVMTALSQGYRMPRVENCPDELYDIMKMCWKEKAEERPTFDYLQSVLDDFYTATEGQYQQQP
Sequence of Activin receptor type-2B (Homo sapiens) (Q13705 whole entry, the tested form may be a part): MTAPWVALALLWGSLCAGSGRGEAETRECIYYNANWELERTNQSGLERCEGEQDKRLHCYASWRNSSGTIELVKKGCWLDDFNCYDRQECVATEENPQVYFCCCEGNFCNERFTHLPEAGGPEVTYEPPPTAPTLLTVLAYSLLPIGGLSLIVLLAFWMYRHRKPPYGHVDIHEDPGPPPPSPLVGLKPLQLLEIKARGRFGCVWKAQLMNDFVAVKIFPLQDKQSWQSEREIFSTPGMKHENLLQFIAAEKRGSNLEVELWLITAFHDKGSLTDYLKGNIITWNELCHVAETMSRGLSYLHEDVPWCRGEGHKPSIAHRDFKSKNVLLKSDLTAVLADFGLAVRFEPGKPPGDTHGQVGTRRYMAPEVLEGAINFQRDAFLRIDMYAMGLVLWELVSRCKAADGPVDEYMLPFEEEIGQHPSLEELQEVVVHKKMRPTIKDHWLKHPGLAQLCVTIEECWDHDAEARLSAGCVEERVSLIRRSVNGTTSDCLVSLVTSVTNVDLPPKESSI

SMILES: CCN1CC2(C1)CN(c1ccc(Nc3ncc(F)c(-c4cnn5c4[C@H](C)CCCC5)n3)nc1)C2
- inhibition [1]: -4%
- inhibition [2]: 4.5%
- inhibition [3]: 92%
- inhibition [4]: 44%
- inhibition [5]: 10%
- inhibition [6]: 72%
- inhibition [7]: 3.5%
- inhibition [8]: 59%
- inhibition [9]: 19%
- inhibition [10]: 3.5%
- inhibition [11]: -1.5%
- inhibition [12]: 61.5%
- inhibition [13]: 17.5%
- inhibition [14]: 7%
- inhibition [15]: 4%
- inhibition [16]: 20.5%
- inhibition [17]: -3%
- inhibition [18]: 19.5%
- inhibition [19]: 87.5%
- inhibition [20]: -1%
- inhibition [21]: -0.5%
- inhibition [22]: 6%
- inhibition [23]: 5%

SMILES: CCN1CCN(Cc2ccc(Nc3ncc(F)c(-c4cc(F)c5nc(C)n(C(C)C)c5c4)n3)nc2)CC1 [ABEMACICLIB]
- inhibition [1]: -2%
- inhibition [2]: 5.4%
- inhibition [3]: 22.7%
- inhibition [4]: 69.4%
- inhibition [5]: 2.5%
- inhibition [6]: 56.2%
- inhibition [7]: 1%
- inhibition [8]: 35.5%
- inhibition [9]: 4%
- inhibition [10]: 9%
- inhibition [11]: 3.5%
- inhibition [12]: 25.5%
- inhibition [13]: 4.5%
- inhibition [14]: 6%
- inhibition [15]: 13%
- inhibition [16]: 21.5%
- inhibition [17]: 12%
- inhibition [18]: 8%
- inhibition [19]: 57.1%
- inhibition [20]: 6.5%
- inhibition [21]: -2%
- inhibition [22]: 8%
- inhibition [23]: 1.9%
